The values that follow are results of earlier work, collected in patent US20070160542A1, “Methods and systems for the delivery of corticosteroids having an enhanced pharmacokinetic profile” (Verus Pharmaceuticals, Inc., priority 2005, published 2007).

The structures appear in SMILES notation.

In the case of `CCCC1O[C@@H]2C[C@H]3[C@@H]4CCC5=CC(=O)C=C[C@]5(C)[C@H]4[C@@H](O)C[C@]3(C)[C@]2(C(=O)CO)O1` (stereo partly drawn) [budesonide, (R,S)-11β,16α,17,21-tetrahydroxypregna-1,4-diene-3,20-dione cyclic 16,17-acetal with butyraldehyde], the solubility in alcohols entry is listed as “readily soluble” and the solubility in water entry is listed as “virtually insoluble”.
